# Laboratory results as given in patent US8334126B2, “Coryneform host-vector systems comprising a chromosomal ALR gene which is attenuated or eliminated and methods of using” (priority 2000, dated 2012).
# What was measured:
# [1] = tested on: Corynebacterium glutamicum ATCC13032; assay: Minimum inhibitory concentration, dilution antimicrobial susceptibility test (NCCLS M7-A4); type: cell-based; conditions: sensitive control strain ATCC13032; MÜLLER-HINTON-Bouillon
# Text: (§1) The nutrient medium required for this test, “MÜLLER-HINTON-Bouillon”, was obtained from Merck KgaA (Darmstadt, Germany) and employed in accordance with the manufacturer's instructions. […] The plasmid DNA isolated from Corynebacterium glutamicum LP-6 with the aid of an alkaline lysis method (“NucleoBond Nucleic Acid Purification Kits and Cartridges User Manual (PT3167-1)”, Clonetech Laboratories GmbH, Heidelberg, Germany, 1997 I.B.R.) was then transferred to Corynebacterium glutamicum ATCC13032 by electrotransfer.
# [2] = tested on: Corynebacterium glutamicum ATCC13032[pTET3]; assay: as above; type: cell-based; conditions: transformed strain ATCC13032[pTET3]; MÜLLER-HINTON-Bouillon
# Text: as §1
# [3] = tested on: Corynebacterium glutamicum LP-6; conditions: resistant test strain LP-6; MÜLLER-HINTON-Bouillon
# Text: as §1
smiles,measurement,setting,value
"CN(C)[C@@H]1C(O)=C(C(N)=O)C(=O)[C@@]2(O)C(O)=C3C(=O)c4c(O)cccc4[C@@](C)(O)[C@H]3C[C@@H]12 [Tetracycline, tetracycline]",Minimum inhibitory concentration,[1],≦0.75 μg tetracycline per ml
same,Minimum inhibitory concentration,[2],≦12 μg tetracycline per ml
same,Minimum inhibitory concentration,[3],≦12 μg tetracycline per ml
